Source: publication PMC11249953, “c-KIT inhibitors reduce pathology and improve behavior in the Tg(SwDI) model of Alzheimer’s disease” (Life Science Alliance, 2024)
Values joined by “and” are separate entries in the source; they are usually repeats but may differ in a detail not shown here. Equal values may be shown once.

Assays:
PDGFRa = target: T1, PDGFRa (Homo sapiens, UniProt P16234); assay: KINOMEscan competition binding, PDGFRa; conditions: 10 µM compound; for remaining binding at 10 µM: lower = stronger binding, read-out: PDGFRa %Ctrl @ 10000nM (POC)
T1 construct: DNA label for qPCR read-out (T7 phage fusion or DNA tag); purchased Eurofins DiscoverX Corporation; host or cells: T7 phage in E. coli (BL21-derived) or HEK-293
Method: (§1) The KINOMEscan screening platform (Eurofins DiscoverX Corporation) was performed using active site-directed competition binding assay to quantitatively measure interactions between BK40143 and BK40197 and more than 450 human kinases and disease relevant mutant variants. […] Screening “hits” are identified by measuring the amount of kinase captured in test (BK40143 and BK40197) versus control samples by using a quantitative and ultra-sensitive qRT-PCR method that detects the associated DNA label. BK40143 and BK40197 were screened at 10 µM concentration, and results for primary screen binding interactions were reported as “% Ctrl” (POC), where lower numbers indicate stronger hits and calculated as follows: [test compound signal−positive control signal/negative control signal−positive control signal]×100
(§2) negative control = DMSO (100% Ctrl)
(§3) positive control = control compound (0% Ctrl)
(§4) Based on screening data from of profiled compounds, a proportional relationship between primary screening results and corresponding compound/target affinities can be described as binding constants (Kd values) for the indicated ranges of POC values with tighter binding (higher affinity) interactions associated with lower POC values and weaker binding (lower affinity) associated with higher POC values. Briefly, kinase-tagged T7 phage strains were grown in parallel in 24-well blocks in an E. coli host derived from the BL21 strain. E. coli were grown to log-phase and infected with T7 phage from a frozen stock (multiplicity of infection = 0.4) and incubated with shaking at 32°C until lysis (90–150 min). The lysates were centrifuged (6,000g) and filtered (0.2 μm) to remove cell debris. The remaining kinases were produced in HEK-293 cells and subsequently tagged with DNA for qRT-PCR detection. Streptavidin-coated magnetic beads were treated with biotinylated small molecule ligands for 30 min at RT to generate affinity resins for kinase assays. The liganded beads were blocked with excess biotin and washed with blocking buffer (1% BSA, 0.05% Tween 20, 1 mM DTT; SeaBlock [Pierce]) to remove unbound ligand and to reduce non-specific phage binding. Binding reactions were assembled by combining kinases, liganded affinity beads, and test compounds in 1x binding buffer (20% 0.17x PBS, 0.05% Tween 20, 6 mM DTT; SeaBlock). Test compounds were prepared as 100x stocks in 100% DMSO and directly diluted into the assay. All reactions were performed in polypropylene 384-well plates in a final volume of 0.02 ml. The assay plates were incubated at RT with shaking for 1 h and the affinity beads were washed with wash buffer (1x PBS, 0.05% Tween 20). […] The kinase concentration in the eluates was measured by qRT-PCR.

SRC = target: T2, SRC (Homo sapiens, UniProt P12931); assay: KINOMEscan competition binding, SRC; conditions: 10 µM compound; for remaining binding at 10 µM: lower = stronger binding, read-out: SRC %Ctrl @ 10000nM (POC)
T2 construct: DNA label for qPCR read-out (T7 phage fusion or DNA tag); purchased Eurofins DiscoverX Corporation; host or cells: T7 phage in E. coli (BL21-derived) or HEK-293
Method: as §1, §2, §3, §4

SYK = target: T3, SYK (Homo sapiens, UniProt P43405); assay: KINOMEscan competition binding, SYK; conditions: 10 µM compound; for remaining binding at 10 µM: lower = stronger binding, read-out: SYK %Ctrl @ 10000nM (POC)
T3 construct: DNA label for qPCR read-out (T7 phage fusion or DNA tag); purchased Eurofins DiscoverX Corporation; host or cells: T7 phage in E. coli (BL21-derived) or HEK-293
Method: as §1, §2, §3, §4

MAP4K4 = target: T4, MAP4K4 (Homo sapiens, UniProt O95819); assay: KINOMEscan competition binding, MAP4K4; conditions: 10 µM compound; for remaining binding at 10 µM: lower = stronger binding, read-out: MAP4K4 %Ctrl @ 10000nM (POC)
T4 construct: DNA label for qPCR read-out (T7 phage fusion or DNA tag); purchased Eurofins DiscoverX Corporation; host or cells: T7 phage in E. coli (BL21-derived) or HEK-293
Method: as §1, §2, §3, §4

WT mice (C57BL/6) = assay: Drug tolerability assessment (multiple ascending dose); assay type: in vivo; conditions: for maximum tolerable dose: IP daily, multiple ascending dose, WT mice; for therapeutic safe dose in animals: both, C57BL/6, mouse
Method: 3–4-mo-old WT mice (male and female, C57BL/6) were IP injected with starting doses of 10 mg/kg of BK40143 or BK40197 daily for 5 d before a 2-d washout period. […] BK40197 dosage was increased in 10 mg/kg increments for 5 d each until the maximum tolerable dose of 50 mg/kg was reached. All animal work was approved by GUACUC.

beclin-1 in TgAPP mice = assay: Western blot for beclin-1 in brain; assay type: in vivo, mouse; conditions: BK40143 5 mg/kg, BK40197 45 mg/kg, vs DMSO
Method: Brain hemispheres from treated and untreated animals were lysed in 1x STEN buffer and protein concentrations were measured via BCA assay. Samples were normalized to 1 μg/μl and added to 2x Laemmli loading buffer + β-mercaptoethanol and boiled for 10 min to denature the protein. 15 μg of sample were then loaded in 4–12% Bis–Tris gels with MES buffer and electrophoresed, before transfer to a nitrocellulose membrane, where they were blocked with 5% dry milk in 1x TBST and incubated overnight with an anti-Beclin-1 primary antibody (cat. #3739S; Cell Signaling) or a phospho-c-KIT antibody (cat. #44-496G; Invitrogen). The next day, the membrane was washed and treated for 1 h with a goat anti-rabbit HRP-linked secondary followed by SuperSignal West Dura Extended Duration Substrate (cat. #37071; Thermo Fisher Scientific) and imaged on an Amersham Imager 600. This procedure was repeated the next day with an anti-mouse actin primary as a loading control.

mice = assay: Nesting, source data sheets Nesting (mouse line not given); assay type: in vivo; set-up: key to Nesting Score AVG (of three observers) / Nesting Score AVG, group mean / Nesting Score / Nesting Score AVG: 0 = nestlet untouched to 5 = near perfect nest; key to Nesting Score (NICK) / Nesting Score (MICHAELINE) / Nesting Score(MAX) / Nesting Score (KORLISS): 0: nestlet untouched; 1: nestlet hardly touched (more than 90% intact); 2: nestlet partially torn (50–90% intact); 3: mostly shredded but no identifiable nest, less than 50% intact but less than 90% in a single quarter of the cage; 4: An identifiable but flat nest, more than 90% torn and material is gathered in a single quarter of the cage; 5: A near perfect nest, more than 90% of the nestlet is torn and the nest is a crater, with walls higher than the mouse body height; conditions: for Nesting Score (MICHAELINE): observer MICHAELINE; for Nesting Score (NICK): observer NICK
Method: Mice were singly housed in standard cages overnight (6 pm–6 am) with a 3-gram cloth nestlet and allowed to freely behave. The next day, nestlets were weighed and photographed, and amount of nestlet shredding was recorded by three observers based on the following scale: 0—nestlet untouched, 1—nestlet hardly touched (more than 90% intact), 2—nestlet partially torn (50–90% intact), 3—mostly shredded but no identifiable nest, less than 50% intact but less than 90% in a single quarter of the cage, 4—An identifiable but flat nest, more than 90% torn and material is gathered in a single quarter of the cage, 5—A near perfect nest, more than 90% of the nestlet is torn and the nest is a crater, with walls higher than the mouse body height.

[1] = 2.5mg/kg, individual mice, listed as 143
[2] = 5.0mg/kg, individual mice, listed as 143

T4 sequence (O95819 whole entry, the tested form may be a part): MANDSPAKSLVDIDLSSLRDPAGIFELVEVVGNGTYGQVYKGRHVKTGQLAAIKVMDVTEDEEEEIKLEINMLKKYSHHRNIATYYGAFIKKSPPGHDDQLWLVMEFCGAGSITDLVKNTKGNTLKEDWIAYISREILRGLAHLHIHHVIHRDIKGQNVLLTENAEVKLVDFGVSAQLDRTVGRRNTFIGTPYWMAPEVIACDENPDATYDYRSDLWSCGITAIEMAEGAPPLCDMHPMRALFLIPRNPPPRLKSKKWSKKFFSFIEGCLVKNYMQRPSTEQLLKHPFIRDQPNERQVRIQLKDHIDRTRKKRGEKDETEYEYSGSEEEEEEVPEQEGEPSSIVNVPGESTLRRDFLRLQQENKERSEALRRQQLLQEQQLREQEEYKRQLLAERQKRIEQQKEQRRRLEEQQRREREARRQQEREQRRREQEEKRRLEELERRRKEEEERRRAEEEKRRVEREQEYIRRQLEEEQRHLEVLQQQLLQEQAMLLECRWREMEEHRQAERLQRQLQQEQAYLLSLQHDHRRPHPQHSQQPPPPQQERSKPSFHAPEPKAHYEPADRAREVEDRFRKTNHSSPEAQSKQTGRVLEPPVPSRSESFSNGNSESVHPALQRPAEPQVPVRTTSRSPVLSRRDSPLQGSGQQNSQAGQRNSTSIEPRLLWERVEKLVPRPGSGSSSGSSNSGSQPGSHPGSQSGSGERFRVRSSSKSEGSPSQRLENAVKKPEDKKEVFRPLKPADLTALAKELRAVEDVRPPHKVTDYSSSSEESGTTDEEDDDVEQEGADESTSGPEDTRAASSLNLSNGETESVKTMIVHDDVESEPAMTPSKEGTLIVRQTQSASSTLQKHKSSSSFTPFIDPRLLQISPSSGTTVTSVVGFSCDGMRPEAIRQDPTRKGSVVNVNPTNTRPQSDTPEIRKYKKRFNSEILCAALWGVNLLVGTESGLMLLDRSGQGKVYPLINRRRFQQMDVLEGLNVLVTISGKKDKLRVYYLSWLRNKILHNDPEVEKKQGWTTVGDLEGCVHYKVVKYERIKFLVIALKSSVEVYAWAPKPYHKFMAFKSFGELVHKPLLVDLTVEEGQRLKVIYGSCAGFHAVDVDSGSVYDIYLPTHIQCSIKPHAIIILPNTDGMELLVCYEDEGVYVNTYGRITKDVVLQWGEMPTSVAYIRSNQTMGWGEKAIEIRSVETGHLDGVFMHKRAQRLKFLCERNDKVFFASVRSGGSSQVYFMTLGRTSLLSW
T1 sequence (P16234 24-1089): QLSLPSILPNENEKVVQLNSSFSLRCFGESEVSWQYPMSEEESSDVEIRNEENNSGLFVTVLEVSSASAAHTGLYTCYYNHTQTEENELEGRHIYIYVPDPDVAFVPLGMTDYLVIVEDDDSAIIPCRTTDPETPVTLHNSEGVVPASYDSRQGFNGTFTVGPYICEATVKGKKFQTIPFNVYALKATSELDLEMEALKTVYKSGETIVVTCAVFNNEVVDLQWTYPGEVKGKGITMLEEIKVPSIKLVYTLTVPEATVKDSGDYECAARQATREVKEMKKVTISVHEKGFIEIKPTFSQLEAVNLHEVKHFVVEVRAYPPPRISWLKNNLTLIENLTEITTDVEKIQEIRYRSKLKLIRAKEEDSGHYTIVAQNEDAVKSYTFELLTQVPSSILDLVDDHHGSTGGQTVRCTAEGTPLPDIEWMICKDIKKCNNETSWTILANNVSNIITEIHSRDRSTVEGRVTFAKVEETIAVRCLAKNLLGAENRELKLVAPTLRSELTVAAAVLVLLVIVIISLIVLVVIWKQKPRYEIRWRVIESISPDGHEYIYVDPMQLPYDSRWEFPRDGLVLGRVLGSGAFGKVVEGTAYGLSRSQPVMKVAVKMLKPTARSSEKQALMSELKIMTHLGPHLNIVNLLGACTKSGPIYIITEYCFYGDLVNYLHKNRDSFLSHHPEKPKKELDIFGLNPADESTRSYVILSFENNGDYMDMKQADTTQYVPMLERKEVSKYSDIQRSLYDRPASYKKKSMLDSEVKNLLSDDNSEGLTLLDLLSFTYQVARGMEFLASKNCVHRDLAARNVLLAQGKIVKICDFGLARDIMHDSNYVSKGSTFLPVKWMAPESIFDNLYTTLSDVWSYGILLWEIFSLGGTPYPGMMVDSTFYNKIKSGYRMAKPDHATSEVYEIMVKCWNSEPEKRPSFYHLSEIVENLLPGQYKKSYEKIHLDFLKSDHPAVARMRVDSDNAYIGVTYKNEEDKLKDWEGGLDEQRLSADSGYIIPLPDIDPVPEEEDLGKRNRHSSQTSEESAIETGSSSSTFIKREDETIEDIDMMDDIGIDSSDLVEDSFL
T2 sequence (P12931 whole entry, the tested form may be a part): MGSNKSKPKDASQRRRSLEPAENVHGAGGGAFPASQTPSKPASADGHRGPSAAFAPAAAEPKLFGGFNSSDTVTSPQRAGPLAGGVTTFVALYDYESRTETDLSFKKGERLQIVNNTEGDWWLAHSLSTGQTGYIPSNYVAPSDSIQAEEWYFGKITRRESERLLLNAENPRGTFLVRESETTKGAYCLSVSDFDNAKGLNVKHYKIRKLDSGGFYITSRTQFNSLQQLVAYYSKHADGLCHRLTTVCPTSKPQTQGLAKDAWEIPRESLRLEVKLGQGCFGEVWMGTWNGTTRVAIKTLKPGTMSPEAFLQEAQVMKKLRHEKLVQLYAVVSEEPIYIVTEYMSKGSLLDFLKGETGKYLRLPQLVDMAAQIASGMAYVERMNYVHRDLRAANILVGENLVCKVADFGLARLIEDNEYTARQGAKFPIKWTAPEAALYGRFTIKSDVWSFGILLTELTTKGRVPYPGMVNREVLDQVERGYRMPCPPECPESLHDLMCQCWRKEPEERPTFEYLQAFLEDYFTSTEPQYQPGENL

Compound | inhibition at 10 µM (PDGFRa) [%] | remaining binding at 10 µM (PDGFRa) [%] | inhibition at 10 µM (SRC) [%] | remaining binding at 10 µM (SRC) [%] | inhibition at 10 µM (SYK) [%] | remaining binding at 10 µM (SYK) [%] | inhibition at 10 µM (MAP4K4) [%] | remaining binding at 10 µM (MAP4K4) [%] | maximum tolerable dose (WT mice (C57BL/6)) [mg/kg] | therapeutic safe dose in animals (WT mice (C57BL/6); in vivo) | beclin-1 levels in brain (Western blot) (beclin-1 in TgAPP mice) | also measured
Cc1cccc(-c2cc3nccc(N4CCOCC4)c3s2)c1 [BK40197] | 74 | 26 | 19 | 81 | 56 | 44 | 60 | 40 | 45 | ≤ 45 mg/kg | significant increases in levels of beclin-1 | Nesting Score (mice; average score of the raters listed by treatment group, one value per mouse, listed as 197): 2 and 1 and 0.5 and 0 and 3; Nesting Score AVG (mice; nesting, average of the raters, one value per mouse, listed as 197): 2 and 1 and 3 and 0.5 and 0; Nesting Score (KORLISS) (mice; nesting, rater KORLISS, one value per mouse, listed as 197): 2 (nestlet partially torn (50–90% intact)) and 1 (nestlet hardly touched (more than 90% intact)) and 4 and 0; Nesting Score(MAX) (mice; nesting, rater MAX, one value per mouse, listed as 197): 2 (nestlet partially torn (50–90% intact)) and 1 (nestlet hardly touched (more than 90% intact)) and 0; Weight (mice; nestlet weight listed by treatment group, one value per mouse, listed as 197, in g (unit assumed)): 2.1 and 2.8 and 2.5 and 2.6 and 2.9 and 1.7
Cc1cccc(-c2cc3nccc(Nc4ccccc4)c3s2)c1 [BK40143] | 98.1 | 1 to 10 | 84.7 | 5.3 | 94.5 | 5.5 | 93.2 | 6.8 | 7.5 | up to 7.5 mg/kg | significant increases in levels of beclin-1 | tolerability at starting dose (WT mice (C57BL/6); mouse, in vivo): rodent mortality; Nesting Score AVG, group mean (mice; 2.5mg/kg): 0.9048; Nesting Score AVG (of three observers) (mice; [1]): 0 and 1.333 and 2.667 and 1; Nestlet Weight (mice; 2.5mg/kg, individual mice, listed as 143, in g (unit assumed)): 2.6 and 2.8 and 2.7 and 0.9 and 2.5; Nesting Score(MAX) (mice; 2.5mg/kg, observer MAX, individual mice, listed as 143): 0 and 2 (nestlet partially torn (50–90% intact)) and 3 (mostly shredded but no identifiable nest, less than 50% intact but less than 90% in a single quarter of the cage) and 1 (nestlet hardly touched (more than 90% intact)); Nesting Score (MICHAELINE) (mice; [1]): 0 and 1 (nestlet hardly touched (more than 90% intact)) and 2 (nestlet partially torn (50–90% intact)); Nesting Score (NICK) (mice; [1]): 0 and 1 (nestlet hardly touched (more than 90% intact)) and 3 (mostly shredded but no identifiable nest, less than 50% intact but less than 90% in a single quarter of the cage); Nesting Score AVG, group mean (mice; 5.0mg/kg): 1.067; Nesting Score AVG (of three observers) (mice; [2]): 1.333 and 0.3333 and 1 and 2 and 0.6667 and 3.667 and 0; Nestlet Weight (mice; 5.0mg/kg, individual mice, listed as 143, in g (unit assumed)): 2.5 and 2.7 and 2.1 and 2.6 and 2.9 and 0; Nesting Score(MAX) (mice; 5.0mg/kg, observer MAX, individual mice, listed as 143): 2 (nestlet partially torn (50–90% intact)) and 1 (nestlet hardly touched (more than 90% intact)) and 4 and 0; Nesting Score (MICHAELINE) (mice; [2]): 1 (nestlet hardly touched (more than 90% intact)) and 0 and 2 (nestlet partially torn (50–90% intact)) and 3 (mostly shredded but no identifiable nest, less than 50% intact but less than 90% in a single quarter of the cage); Nesting Score (NICK) (mice; [2]): 1 (nestlet hardly touched (more than 90% intact)) and 0 and 2 (nestlet partially torn (50–90% intact)) and 4
